Laboratory results: patent US20020055639A1, “Pyrazole derivatives as herbicides” (priority 1997, published 2002)

Experiments:
Format in all cases: in vivo
Set-up in all cases: key: 1=total damage; 9=no action; Ratings of from 1 to 4 (especially from 1 to 3) indicate good to very good herbicidal action
Sinapis [1] = test: Post-emergence herbicidal action (Example B2); details: 2000 g a.i./ha, sprayed at 4- to 6-leaf stage, evaluated after approximately 18 days, scale of nine ratings
Experimental: (§1) Monocotyledonous and dicotyledonous test plants are grown in a greenhouse in plastics pots containing standard soil and at the 4- to 6-leaf stage are sprayed with an aqueous suspension or emulsion of the test substances of formula I, prepared from a 25% emulsifiable concentrate (Example F1, c) in WO 97/34485, pages 9 and 10), at a rate of application corresponding to 2000 g of active ingredient/ha (500 liters water/ha). The test plants are then grown on in the greenhouse under optimum conditions. After approximately 18 days' test duration, the test is evaluated in accordance with a scale of nine ratings (1=total damage, 9=no action). Ratings of from 1 to 4 (especially from 1 to 3) indicate good to very good herbicidal action.
(§2) Test plants: Avena, Setaria, Sinapis, Stellaria

Avena [2] = test: Post-emergence herbicidal action (Example B2); details: 2000 g a.i./ha, sprayed at 4- to 6-leaf stage, evaluated after approximately 18 days, scale of nine ratings
Experimental: as §1, §2

Stellaria [3] = test: Post-emergence herbicidal action (Example B2); details: 2000 g a.i./ha, sprayed at 4- to 6-leaf stage, evaluated after approximately 18 days, scale of nine ratings
Experimental: as §1, §2

Setaria [4] = test: Post-emergence herbicidal action (Example B2); details: 2000 g a.i./ha, sprayed at 4- to 6-leaf stage, evaluated after approximately 18 days, scale of nine ratings
Experimental: as §1, §2

Sinapis [5] = test: Pre-emergence herbicidal action (Example B1); details: 2000 g a.i./ha, sprayed immediately after sowing, evaluated after 3 weeks, scale of nine ratings
Experimental: (§3) Monocotyledonous and dicotyledonous test plants are sown in standard soil in plastics pots. Immediately after sowing, the test compounds, each in the form of an aqueous suspension or emulsion prepared from a 25% emulsifiable concentrate (Example F1, c) in WO 97/34485, pages 9 and 10), are applied by spraying at a rate of application of 2000 g of active ingredient/ha (500 liters water/ha). The test plants are then grown in a greenhouse under optimum conditions. After 3 weeks' test duration, the test is evaluated in accordance with a scale of nine ratings (1=total damage, 9=no action). Ratings of from 1 to 4 (especially from 1 to 3) indicate good to very good herbicidal action.
as §2

Avena [6] = test: Pre-emergence herbicidal action (Example B1); details: 2000 g a.i./ha, sprayed immediately after sowing, evaluated after 3 weeks, scale of nine ratings
Experimental: as §3, §2

Stellaria [7] = test: Pre-emergence herbicidal action (Example B1); details: 2000 g a.i./ha, sprayed immediately after sowing, evaluated after 3 weeks, scale of nine ratings
Experimental: as §3, §2

Setaria [8] = test: Pre-emergence herbicidal action (Example B1); details: 2000 g a.i./ha, sprayed immediately after sowing, evaluated after 3 weeks, scale of nine ratings
Experimental: as §3, §2

Structure (SMILES)	Post-emergence action: Sinapis (rating) (Sinapis [1])	Post-emergence action: Avena (rating) (Avena [2])	Post-emergence action: Stellaria (rating) (Stellaria [3])	Post-emergence action: Setaria (rating) (Setaria [4])	Pre-emergence action: Sinapis (rating) (Sinapis [5])	Pre-emergence action: Avena (rating) (Avena [6])	Pre-emergence action: Stellaria (rating) (Stellaria [7])	Pre-emergence action: Setaria (rating) (Setaria [8])
CCOC(=O)CCCn1c(-c2nn(C)c(OC(F)F)c2Cl)c(F)cc(Cl)c1=O [Example 1.205]	1	1	1	1	1	1	1	1
CCCCn1c(-c2nn(C)c(OC(F)F)c2Cl)c(F)cc(Cl)c1=O [Example 1.010]	1	1	1	1	1	1	1	1
Cn1nc(-c2c(F)cc(Cl)c(=O)n2CC#N)c(Cl)c1OC(F)F [Example 1.126]	1	1	1	1	1	1	1	1
Cn1nc(-c2c(F)cc(Cl)c(=O)n2Cc2ccccc2)c(Cl)c1OC(F)F [Example 1.111]	1	2	2	1	1	2	1	1
CSCn1c(-c2nn(C)c(OC(F)F)c2Cl)c(F)cc(Cl)c1=O [Example 1.147]	1	1	1	1	1	1	1	1
COn1c(-c2nn(C)c(OC(F)F)c2Cl)c(F)cc(Cl)c1=O [Example 1.400]	1	1	1	2	1	1	1	1
Cn1nc(-c2c(F)cc(Cl)c(=O)n2C)c(Cl)c1C(F)(F)F [Example 9.002]	1	1	1	3	1	1	1	3
Cn1nc(-c2c(F)cc(Cl)c(=O)n2C)c(Cl)c1OC(F)F [Example 1.002]	1	1	1	1	1	1	1	1
Cn1nc(-c2c(F)cc(Cl)c(=O)n2CCCc2ccccc2)c(Cl)c1OC(F)F [Example 1.106]	1	3	1	3	1	2	1	1
C=CCn1c(-c2nn(C)c(OC(F)F)c2Cl)c(F)cc(Cl)c1=O [Example 1.080]	1	1	1	1	1	1	1	1
C#CCn1c(-c2nn(C)c(C(F)(F)F)c2Br)c(F)cc(Cl)c1=O [Example 10.100]	1	1	1	2	1	1	1	1
CCOC(=O)Cn1c(-c2nn(C)c(OC(F)F)c2Cl)c(F)cc(Cl)c1=O [Example 1.181]	1	1	1	1	1	1	1	1
CCS(=O)(=O)CCn1c(-c2nn(C)c(OC(F)F)c2Cl)c(F)cc(Cl)c1=O [Example 1.168]	1	1	1	1	1	1	1	1
C#CCn1c(-c2nn(C)c(C(F)(F)F)c2Cl)c(F)cc(Cl)c1=O [Example 9.100]	1	2	1	2	1	1	1	1
Cn1nc(-c2c(Cl)cc(Cl)c(=O)n2CS(C)(=O)=O)c(Cl)c1OC(F)F [Example 1.152]	1	1	1	1	1	1	1	1
CCC(=O)Cn1c(-c2nn(C)c(OC(F)F)c2Cl)c(F)cc(Cl)c1=O [Example 1.302]	1	1	1	1	1	1	1	1
C#CCn1c(-c2nn(C)c(OC(F)F)c2Cl)c(F)cc(Cl)c1=O [Example 1.100]	1	1	1	1	1	1	1	1
Cn1nc(-c2c(F)cc(Cl)c(=O)n2CC(=O)OCc2ccccc2)c(Cl)c1OC(F)F [Example 1.195]	1	1	1	1	1	3	1	1
CCn1c(-c2nn(C)c(OC(F)F)c2Cl)c(F)cc(Cl)c1=O [Example 1.004]	1	1	1	2	1	1	1	1
